Measured values published in PubChem BioAssay (NCI).
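Tested at 5 concentrations; 48 h exposure; 96-well plates; endpoints linearly interpolated, else capped at highest concentration. GI50 is the concentration that inhibits growth by half. Definition used: TGI = concentration required for complete inhibition of growth.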

Tests used:
Assay in all cases: NCI tumour cell line growth inhibition, 48 h
SK-MEL-28 melanoma = tested on: SK-MEL-28 melanoma
NCI-H226 lung = tested on: NCI-H226 lung
SR leukemia = tested on: SR leukemia
BT-549 breast = tested on: BT-549 breast
SK-MEL-2 melanoma = tested on: SK-MEL-2 melanoma
A498 renal = tested on: A498 renal
NCI/ADR-RES ovarian = tested on: NCI/ADR-RES ovarian
SF-539 CNS = tested on: SF-539 CNS
UACC-257 melanoma = tested on: UACC-257 melanoma
SF-295 CNS = tested on: SF-295 CNS

Structure (SMILES)	GI50 (SK-MEL-28 melanoma) [µM]	TGI (SK-MEL-28 melanoma) [µM]	GI50 (NCI-H226 lung) [µM]	TGI (NCI-H226 lung) [µM]	GI50 (SR leukemia) [µM]	TGI (SR leukemia) [µM]	GI50 (BT-549 breast) [µM]	TGI (BT-549 breast) [µM]	GI50 (SK-MEL-2 melanoma) [µM]	TGI (SK-MEL-2 melanoma) [µM]	GI50 (A498 renal) [µM]	TGI (A498 renal) [µM]	GI50 (NCI/ADR-RES ovarian) [µM]	TGI (NCI/ADR-RES ovarian) [µM]	GI50 (SF-539 CNS) [µM]	TGI (SF-539 CNS) [µM]	GI50 (UACC-257 melanoma) [µM]	TGI (UACC-257 melanoma) [µM]	GI50 (SF-295 CNS) [µM]	TGI (SF-295 CNS) [µM]
COc1cc2c3c(n(CCCN(C)C)c(=O)c2cc1OC)-c1ccccc1C3=O	8.5	> 65	18.6	> 100	0.184	1.82	21.4	> 100	> 100	> 100	24.7	> 73.9	5.94	> 49.1	4.47	28.7	> 100	> 100	1.26	–
CCc1ccccc1NC(=O)c1sc2nc3c(cc2c1N)C(=O)CCC3	3.71	> 100	23.2	> 100	0.406	> 100	27.4	> 100	–	–	0.22	5.52	0.433	41.1	0.373	3.15	27.6	> 100	0.283	> 88
COc1cc2ncn(-c3cc(OCCc4ccccc4)c(C(N)=O)s3)c2cc1OC	> 25	> 25	> 25	> 25	13.6	> 25	> 25	> 25	> 25	> 25	2.43	> 22.3	14.8	> 25	> 25	> 25	> 25	> 25	> 25	> 25
Cc1cn2c(/C=C3\C(=O)N(C)c4ccc(O)cc43)c(C)nc2s1	5.15	> 100	52.1	> 100	1.98	9.91	7.57	> 100	3.33	18.4	21.6	60.4	8.27	> 100	5.58	28	> 100	> 100	2.82	23.6
CC(C)S(=O)(=O)c1ccccc1Nc1nc(Nc2cccc(NC(=O)CN)c2)ncc1Cl	0.406	2.25	0.113	1.98	0.0101	0.423	0.149	1	0.347	1.57	< 0.0242	0.493	0.482	3.6	0.0455	0.334	0.997	6.73	< 0.0225	8.59
Cc1cc(N/N=C/c2nc(-c3ccc(Br)cc3)oc2C)c2cc(Br)ccc2n1	2.39	6.26	17.9	48.5	0.355	> 100	10.7	23.3	25.6	68.1	16.5	53.2	2.71	9.03	1.76	3.5	6.9	21.9	17.3	32.6
O=c1[nH]cnc2cccc(Cl)c12	–	> 100	–	> 100	–	> 100	–	> 100	–	> 100	–	> 100	–	> 100	–	> 100	–	> 100	–	> 100
COc1ccc(Nc2c3ccccc3nc3occ(Cl)c23)cc1	0.0265	21.1	25.1	> 100	< 0.01	8.36	2.05	26.2	–	–	< 0.01	0.121	< 0.01	2.09	< 0.0167	1.39	0.0159	13.3	< 0.01	0.0558
COc1ccc(C(=O)COc2cccc(/C=C3\Oc4ccc5ccccc5c4C3=O)c2)cc1	15.3	28.7	6.58	22.4	–	–	2.45	10.3	3.76	16.6	20.6	37.1	16.7	33.2	13.4	26.3	14.5	32.4	14.3	36.4
Cn1cc(C2=C(c3cn(CCCCCN)c4ccccc34)C(=O)NC2=O)c2ccccc21	12.7	> 25	> 25	> 25	–	–	8.62	24.3	7.1	18.2	11.3	> 25	12.8	> 25	6.42	21.6	23.1	> 25	9.37	> 20.1
